Laboratory results taken from patent publication US20220002399A1, “METHODS FOR DECREASING INFLUENZA-INDUCED LETHALITY USING GASTRIN-RELEASING PEPTIDE (GRP) INHIBITORS OR GASTRIN-RELEASING PEPTIDE RECEPTOR (GRPR) ANTAGONISTS” (University of Maryland, Baltimore, priority 2018, published 2022).
Ends that are not written are not given here.

What was measured:
[1] = system: LPS signaling (TLR4) in WT C57BL/6J peritoneal macrophages; experiment: LPS signaling in peritoneal macrophages pre-treated with GRP inhibitor or GRPR antagonist; assay type: cell-based, mouse; settings: 0.5 μM pre-treatment 1 h, then LPS (10 ng/ml) 2 h
[2] = system: influenza-induced cytokine induction; experiment: Lung cytokine gene expression by qRT-PCR in PR8-infected mice; assay type: in vivo, WT C57BL/6J mice; parameters: lung mRNA expression of IFN-β: dose or concentration left out as unconfirmed
[3] = system: radiation-induced pneumonitis/fibrosis; settings: therapeutic administration; cited from earlier work
GRP-induced angiogenesis = settings: 0.5 μM; in vitro and in vivo; cited from earlier work
[4] = system: pulmonary neuroendocrine cells (PNECs); experiment: IHC staining for pulmonary neuroendocrine cells (PGP 9.5, GRP) in influenza-infected mice; assay type: in vivo, WT C57BL/6J mice
Description: FIG. 4. IHC staining for pulmonary neuroendocrine cells (PNECs), PGP 9.5, and GRP in influenza-infected mice. Lung sections from FIG. 3 were stained in a mock-infected, c PR8+vehicle, and e PR8+NSC77427 for neural/neuroendocrine-specific PGP 9.5, or in b mock-infected, d PR8+vehicle, and f PR8+NSC77427 for GRP, a neuroendocrine granule marker. Scale bars shown are 50 μm for a-d, and 10 μm for e and f. Arrows are positioned in each panel within a treatment group to indicate groups of positive cells, except in b, where the arrow indicates GRP− cells adjacent to the PGP 9.5+ cells shown in a. g Graphic image analysis of PGP 9.5+ and GRP+ cells after IHC staining. Slides were blinded by an observer with no knowledge of experimental groups. PCP9.5+ and GRP+ cells were counted throughout each complete lung lobe crosssection for each animal, with validation by x40 micrographs of each slide. Total tissue area was determined by using ImageI thresholding analysis (methyl green counterstain) because PNECs are mainly observed in alveolar ducts and small bronchioles. *p=0.009; **p=0.001
Immunohistochemical (IHC) staining for the mature GRP peptide (a PNEC granule marker) and PGP 9.5 (the neural/NE cytoplasmic isoform of ubiquitin-C-terminal hydrolase-1) was carried out as described previously. In brief, formalin-fixed, paraffin-embedded lung sections were treated for 10 min with Triton X-100 (0.3% in phosphate-buffered saline (PBS)), then normal serum blocking. Diluted primary antibodies were added to sections overnight at 4° C., followed by washing in PBS and incubation for 2 h at 4° C. with 1:200 dilution of biotinylated secondary antibodies (Vector, Burlingame, Calif., USA). After blocking in 3% H2O2 in methanol, Vector ABC Elite was applied to slides for 30 min. Slides were developed by using diaminobenzidine and H2O2, and then counterstained in 2% aqueous methyl green. All slides were blinded for semi-quantitative analysis. Results are expressed as mean numbers of cells positive for PGP 9.5 or GRP per mm^2 lung tissue section. […]

[5] = system: LPS signaling (TLR4) in WT C57BL/6J peritoneal macrophages; assay type: cell-based, mouse; settings: 2 h
[6] = 20 μM/mouse i.v. daily day 2 to 6

| Molecule | LPS-induced MyD88-dependent (TNF-α) or TRIF-dependent (IFN-β, RANTES) gene expression [1] | lung mRNA expression of IL-1β [2, 6] | lung mRNA expression of RANTES [2, 6] | lung mRNA expression of TNF-α [2, 6] | lung mRNA expression of IFN-β ([2]; i.v. daily day 2 to 6) | lung injury [3] | GRP-induced angiogenesis (GRP-induced angiogenesis) | fewer PGP+ PNECs vs. PR8-infected untreated ([4]; NSC77427 days 2 to 6, IHC image analysis, p=0.009) | GRP immunostaining in the extracellular matrix ([4]; PR8-infected, NSC77427 days 2 to 6) | decrease in GRP+ PNECs ([4]; PR8-infected, NSC77427 days 2 to 6, IHC image analysis, p=0.001) | MyD88-dependent and TRIF-dependent cytokine gene expression with suboptimal LPS ([5]; GRP 1-100 nM plus LPS 0.1 and 1 ng/ml) | synergistic effect with LPS at higher doses of LPS ([5]; GRP 1-100 nM plus LPS up to 10 ng/ml) | cytokine gene expression, GRP alone ([5]; GRP 1-100 nM, no LPS) |
| --- | --- | --- | --- | --- | --- | --- | --- | --- | --- | --- | --- | --- | --- |
| Nc1nc(Cl)cc(NCCO)n1 [NSC77427, 2-[(2-amino-6-chloropyrimidin-4-yl)amino]ethanol] | did not block | blunted | blunted | blunted | blunted | mitigated | blocked GRP-induced angiogenesis | ~50% | visibly less | ~70% |  |  |  |
| GRP: exogenous gastrin-releasing peptide added to macrophages with LPS (VPLPAGGGTVLTKMYPRGNHWAVGHLM; ends and bridges not checked; UniProt P07492 24-50, looked up) |  |  |  |  |  |  |  |  |  |  | synergistic induction | largely lost | did not induce cytokine gene expression |
